Values of other authors in paper PMC8230491 (Pharmaceuticals, 2021).

Conditions: KET COOH; protonated LYS γ-NH2; no reference given

- pKa: 10.29
SMILES: NCCCC[C@H](N)C(=O)O [LYS, lysine]
